These are literature values, as cited in patent US5968932A, “Method of inhibiting sleep apnea” (Gruenenthal GmbH, priority 1998, dated 1999).

The series has as its system central nervous system. Conditions: known compound, background statement; cited from earlier work.

On to `C[C@H]1SC[C@@H](C(=O)N[C@@H](Cc2c[nH]cn2)C(=O)N2CCC[C@H]2C(N)=O)NC1=O.O.O.O.O` [Montirelin, (3R, 6R) -N-[(6-methyl-5-oxo-3-thiomorpholinyl)carbonyl]-L-histidyl-L-prolinamide tetrahydrate], for which the “Central nervous system effect” value was “exhibits central nervous system stimulating effects”.
